{
  "source": "paper PMC5218480",
  "about": "(PLoS ONE, 2017)",
  "test_system": "MV-4-11 cells",
  "experiment": "Gene expression microarray analysis (Affymetrix PrimeView) and GSEA",
  "type": "cell-based, human",
  "design": "RFU PODN (11730768_x_at) / Fold change /veh PODN (11730768_x_at) / RFU LINC00158 (11744669_a_at) / Fold change /veh LINC00158 (11744669_a_at) / RFU DUSP10 (11751237_a_at) / Fold change /veh DUSP10 (11751237_a_at) / RFU ID3 (11757404_x_at) / Fold change /veh ID3 (11757404_x_at) / RFU PLEKHG5 (11737974_s_at) / Fold change /veh PLEKHG5 (11737974_s_at) / RFU LRRC4B (11730491_at) / Fold change /veh LRRC4B (11730491_at) / RFU GIMAP4 (11747438_a_at) / Fold change /veh GIMAP4 (11747438_a_at) / RFU KRT8 (11758183_x_at) / Fold change /veh KRT8 (11758183_x_at) / RFU CNN1 (11734310_a_at) / Fold change /veh CNN1 (11734310_a_at) / RFU VPS37D (11726825_at) / Fold change /veh VPS37D (11726825_at) / RFU C10orf10 (11716522_x_at) / Fold change /veh C10orf10 (11716522_x_at) / RFU KIR2DL2 /// KIR2DL4 /// KIR2DL5A /// KIR2DL5B /// KIR2DS1 /// KIR2DS2 /// KIR2DS3 /// KIR2DS4 /// KIR3DL3 /// KIR3DL3 /// KIR3DS1 (11738374_at) / Fold change /veh KIR2DL2 /// KIR2DL4 /// KIR2DL5A /// KIR2DL5B /// KIR2DS1 /// KIR2DS2 /// KIR2DS3 /// KIR2DS4 /// KIR3DL3 /// KIR3DL3 /// KIR3DS1 (11738374_at) / RFU C1QL1 (11718748_at) / Fold change /veh C1QL1 (11718748_at) / RFU TMPRSS4 (11747572_a_at) / Fold change /veh TMPRSS4 (11747572_a_at) / RFU HAMP (11756126_x_at) / Fold change /veh HAMP (11756126_x_at) / RFU RNFT2 (11725882_a_at) / Fold change /veh RNFT2 (11725882_a_at) / RFU NR4A2 (11747474_a_at) / Fold change /veh NR4A2 (11747474_a_at) / RFU ABCC12 (11746883_a_at) / Fold change /veh ABCC12 (11746883_a_at) / RFU TMEM136 (11760407_x_at) / Fold change /veh TMEM136 (11760407_x_at) / RFU CLDN22 /// WWC2 (11732394_at) / Fold change /veh CLDN22 /// WWC2 (11732394_at) / RFU HLA-DPB1 (11760878_x_at) / Fold change /veh HLA-DPB1 (11760878_x_at) / RFU SPINT1 (11716480_a_at) / Fold change /veh SPINT1 (11716480_a_at) / RFU GAP43 (11754022_s_at) / Fold change /veh GAP43 (11754022_s_at) / RFU A4GNT (11735810_at) / Fold change /veh A4GNT (11735810_at) / RFU PRB3 (11715151_x_at) / Fold change /veh PRB3 (11715151_x_at) / RFU TUBB4B (11761932_at) / Fold change /veh TUBB4B (11761932_at) / RFU CAPN14 (11732068_a_at) / Fold change /veh CAPN14 (11732068_a_at) / RFU TMCC2 (11721928_a_at) / Fold change /veh TMCC2 (11721928_a_at) / RFU IRGQ (11745062_a_at) / Fold change /veh IRGQ (11745062_a_at) / RFU FAM174B (11720279_a_at) / Fold change /veh FAM174B (11720279_a_at) / RFU TMPRSS4 (11748680_a_at) / Fold change /veh TMPRSS4 (11748680_a_at) / RFU FAM212B (11763350_a_at) / Fold change /veh FAM212B (11763350_a_at) / RFU PLEKHG5 (11743358_a_at) / Fold change /veh PLEKHG5 (11743358_a_at) / RFU ZSCAN30 (11745921_a_at) / Fold change /veh ZSCAN30 (11745921_a_at) / RFU CMKLR1 (11741424_a_at) / Fold change /veh CMKLR1 (11741424_a_at) / RFU LOC101060620 /// MAPK8IP1 (11723275_at) / Fold change /veh LOC101060620 /// MAPK8IP1 (11723275_at) / RFU SPTSSB (11747773_x_at) / Fold change /veh SPTSSB (11747773_x_at) / RFU PRSS12 (11739890_at) / Fold change /veh PRSS12 (11739890_at) / RFU BIN1 (11741810_x_at) / Fold change /veh BIN1 (11741810_x_at) / RFU WNT11 (11732464_a_at) / Fold change /veh WNT11 (11732464_a_at) / RFU C10orf10 (11716521_a_at) / Fold change /veh C10orf10 (11716521_a_at) / RFU C5orf56 (11738089_at) / Fold change /veh C5orf56 (11738089_at) / RFU CYB561 (11721691_x_at) / Fold change /veh CYB561 (11721691_x_at) / RFU ANKRD19P (11752326_a_at) / Fold change /veh ANKRD19P (11752326_a_at) / RFU OR2T12 /// OR2T33 /// OR2T8 (11738714_s_at) / Fold change /veh OR2T12 /// OR2T33 /// OR2T8 (11738714_s_at) / RFU VCAN (11748164_a_at) / Fold change /veh VCAN (11748164_a_at) / RFU JSRP1 (11732532_at) / Fold change /veh JSRP1 (11732532_at) / RFU KRTAP10-11 (11738290_x_at) / Fold change /veh KRTAP10-11 (11738290_x_at) / RFU MYO3A (11730013_a_at) / Fold change /veh MYO3A (11730013_a_at) / RFU EBF3 (11725865_a_at) / Fold change /veh EBF3 (11725865_a_at) / RFU CAMK2N1 (11719241_x_at) / Fold change /veh CAMK2N1 (11719241_x_at) / RFU C5orf56 (11738088_a_at) / Fold change /veh C5orf56 (11738088_a_at) / RFU OLFML3 (11715873_a_at) / Fold change /veh OLFML3 (11715873_a_at) / RFU LOC100653217 /// NTM (11731650_a_at) / Fold change /veh LOC100653217 /// NTM (11731650_a_at) / RFU MAPK11 (11762145_a_at) / Fold change /veh MAPK11 (11762145_a_at) / RFU FIZ1 (11724087_x_at) / Fold change /veh FIZ1 (11724087_x_at) / RFU OASL (11726364_x_at) / Fold change /veh OASL (11726364_x_at) / RFU SOX15 (11748057_x_at) / Fold change /veh SOX15 (11748057_x_at) / RFU CD79A (11719716_a_at) / Fold change /veh CD79A (11719716_a_at) / RFU HIST1H1D (11736915_at) / Fold change /veh HIST1H1D (11736915_at) / RFU CASKIN2 (11723855_a_at) / Fold change /veh CASKIN2 (11723855_a_at) / RFU LOC730098 (11760151_x_at) / Fold change /veh LOC730098 (11760151_x_at) / RFU OR4N2 (11742367_at) / Fold change /veh OR4N2 (11742367_at) / RFU PRRT2 (11749266_a_at) / Fold change /veh PRRT2 (11749266_a_at) / RFU SNX32 (11753110_a_at) / Fold change /veh SNX32 (11753110_a_at) / RFU CDHR5 (11726645_a_at) / Fold change /veh CDHR5 (11726645_a_at) / RFU RCAN1 (11760418_a_at) / Fold change /veh RCAN1 (11760418_a_at) / RFU FAM167A (11723789_a_at) / Fold change /veh FAM167A (11723789_a_at) / RFU FAM26E (11764081_at) / Fold change /veh FAM26E (11764081_at) / RFU ISYNA1 (11749810_s_at) / Fold change /veh ISYNA1 (11749810_s_at) / RFU ACY1 (11761880_at) / Fold change /veh ACY1 (11761880_at) / RFU 11764098_at / Fold change /veh 11764098_at / RFU SAMD14 (11745864_x_at) / Fold change /veh SAMD14 (11745864_x_at) / RFU NPB (11741838_a_at) / Fold change /veh NPB (11741838_a_at) / RFU TMPRSS6 (11731388_a_at) / Fold change /veh TMPRSS6 (11731388_a_at) / RFU KRTAP10-2 (11738614_at) / Fold change /veh KRTAP10-2 (11738614_at) / RFU ARHGAP8 /// PRR5-ARHGAP8 (11727945_x_at) / Fold change /veh ARHGAP8 /// PRR5-ARHGAP8 (11727945_x_at) / RFU KRTAP5-7 /// NADSYN1 (11734609_at) / Fold change /veh KRTAP5-7 /// NADSYN1 (11734609_at) / RFU RASL12 (11751679_a_at) / Fold change /veh RASL12 (11751679_a_at) / RFU CDKN2B (11736163_a_at) / Fold change /veh CDKN2B (11736163_a_at) / RFU PRF1 (11729649_at) / Fold change /veh PRF1 (11729649_at) / RFU, ZNF638 /// ZNF638-IT1 / Fold change vs veh, ZNF638 /// ZNF638-IT1 / RFU, PANK3 / Fold change vs veh, PANK3 / RFU, SH3YL1 / Fold change vs veh, SH3YL1 / RFU, ZEB2 / Fold change vs veh, ZEB2 / RFU, NRIP1 / Fold change vs veh, NRIP1 / RFU, PTTG1IP / Fold change vs veh, PTTG1IP / RFU, CAPN2 / Fold change vs veh, CAPN2 / RFU, MED14 / Fold change vs veh, MED14 / RFU, SNORA58 / Fold change vs veh, SNORA58 / RFU, C1orf63 / Fold change vs veh, C1orf63 / RFU, LRRFIP1 / Fold change vs veh, LRRFIP1 / RFU, NDUFAF7 / Fold change vs veh, NDUFAF7 / RFU, SLC12A2 / Fold change vs veh, SLC12A2 / RFU, IBTK / Fold change vs veh, IBTK / RFU, ESF1 / Fold change vs veh, ESF1 / Fold change vs veh, TMEM50B / RFU, TAOK1 / Fold change vs veh, TAOK1 / RFU, ACBD3 / Fold change vs veh, ACBD3 / RFU, TMA16 / Fold change vs veh, TMA16 / RFU, RWDD3 / Fold change vs veh, RWDD3 / RFU, BCAT1 / Fold change vs veh, BCAT1 / RFU, EDEM3 / Fold change vs veh, EDEM3 / RFU, TMEM33 / Fold change vs veh, TMEM33 / RFU, WDR75 / Fold change vs veh, WDR75 / RFU, AHCTF1 / Fold change vs veh, AHCTF1 / RFU, TFRC / Fold change vs veh, TFRC / RFU, ZDHHC17 / Fold change vs veh, ZDHHC17 / RFU, NOM1 / Fold change vs veh, NOM1 / RFU, ARL8B / Fold change vs veh, ARL8B / RFU, ZBTB11 / Fold change vs veh, ZBTB11 / RFU, TAMM41 / Fold change vs veh, TAMM41 / RFU, KIAA1704 /// LOC100996395 / Fold change vs veh, KIAA1704 /// LOC100996395 / RFU, ING1 / Fold change vs veh, ING1 / RFU, TRMT61B / Fold change vs veh, TRMT61B / RFU, FUBP3 / Fold change vs veh, FUBP3 / RFU, TP53 / Fold change vs veh, TP53 / RFU, TNKS2 / Fold change vs veh, TNKS2 / RFU, ZFP14 / Fold change vs veh, ZFP14 / RFU, ACTR2 / Fold change vs veh, ACTR2 / RFU, PPP3R1 / Fold change vs veh, PPP3R1 / RFU, PIK3R1 / Fold change vs veh, PIK3R1 / RFU, HNRNPA1 / Fold change vs veh, HNRNPA1 / RFU, RNF170 / Fold change vs veh, RNF170 / RFU, ZNF28 / Fold change vs veh, ZNF28 / RFU, RNGTT / Fold change vs veh, RNGTT / RFU, OGT / Fold change vs veh, OGT / RFU, BRD1 / Fold change vs veh, BRD1 / RFU, MARS / Fold change vs veh, MARS / RFU, ZNF655 / Fold change vs veh, ZNF655 / RFU, FAHD1 / Fold change vs veh, FAHD1 / RFU, BDP1 / Fold change vs veh, BDP1 / RFU, LRRCC1 / Fold change vs veh, LRRCC1 / RFU, ARID1A / Fold change vs veh, ARID1A / RFU, ZNF146 / Fold change vs veh, ZNF146 / RFU, ZNF330 / Fold change vs veh, ZNF330 / RFU, GPN3 / Fold change vs veh, GPN3 / RFU, C9orf123 / Fold change vs veh, C9orf123 / RFU, N4BP2L2 / Fold change vs veh, N4BP2L2 / RFU, ARFIP1 / Fold change vs veh, ARFIP1 / RFU, FAM179B / Fold change vs veh, FAM179B / RFU, BCL10 / Fold change vs veh, BCL10 / RFU, UHRF1BP1L / Fold change vs veh, UHRF1BP1L / RFU, BET1 / Fold change vs veh, BET1 / RFU, CNOT2 / Fold change vs veh, CNOT2 / RFU, ZNF268 / Fold change vs veh, ZNF268 / Fold change vs veh, ZNF507 / RFU, DGCR2 / Fold change vs veh, DGCR2 / RFU, WDSUB1 / Fold change vs veh, WDSUB1 / Fold change vs veh, HSP90B1 /// MIR3652 / RFU, ADSS / Fold change vs veh, ADSS / RFU, GK / Fold change vs veh, GK / RFU, ZNF148 / Fold change vs veh, ZNF148 / RFU, TAF9 / Fold change vs veh, TAF9 / RFU, SLC1A5 / Fold change vs veh, SLC1A5 / RFU, SLMO2 / Fold change vs veh, SLMO2 / RFU, ABCC4 / Fold change vs veh, ABCC4 / RFU, LOC101060439 /// RAP1B / Fold change vs veh, LOC101060439 /// RAP1B / RFU, RFX7 / Fold change vs veh, RFX7 / RFU, GTPBP10 / Fold change vs veh, GTPBP10 / RFU, CNEP1R1 / Fold change vs veh, CNEP1R1 / RFU, BIVM-ERCC5 /// ERCC5 / Fold change vs veh, BIVM-ERCC5 /// ERCC5 / RFU, ILF3 / Fold change vs veh, ILF3 / RFU 11762660_at / Fold change /veh 11762660_at / RFU VCAN (11757783_s_at) / Fold change /veh VCAN (11757783_s_at) / RFU DDX43 (11728927_at) / Fold change /veh DDX43 (11728927_at) / RFU KRT8 (11758188_x_at) / Fold change /veh KRT8 (11758188_x_at) / RFU NKD1 (11759106_at) / Fold change /veh NKD1 (11759106_at) / RFU SRD5A1 (11742802_a_at) / Fold change /veh SRD5A1 (11742802_a_at) / RFU TPSAB1 /// TPSB2 (11721975_s_at) / Fold change /veh TPSAB1 /// TPSB2 (11721975_s_at) / RFU GSTM3 (11746129_a_at) / Fold change /veh GSTM3 (11746129_a_at) / RFU IL23R (11737362_x_at) / Fold change /veh IL23R (11737362_x_at) / RFU TMEM51 (11727254_a_at) / Fold change /veh TMEM51 (11727254_a_at) / RFU PIWIL2 (11732686_x_at) / Fold change /veh PIWIL2 (11732686_x_at) / RFU ORM1 (11744905_x_at) / Fold change /veh ORM1 (11744905_x_at) / RFU CCDC152 (11743942_at) / Fold change /veh CCDC152 (11743942_at) / RFU ECM1 (11717891_a_at) / Fold change /veh ECM1 (11717891_a_at) / RFU IL23R (11748794_a_at) / Fold change /veh IL23R (11748794_a_at) / RFU TNFAIP8L3 (11732012_x_at) / Fold change /veh TNFAIP8L3 (11732012_x_at) / RFU MBOAT4 (11741988_at) / Fold change /veh MBOAT4 (11741988_at) / RFU 11764193_at / Fold change /veh 11764193_at / RFU TMEM53 (11763286_at) / Fold change /veh TMEM53 (11763286_at) / RFU MAGEB2 (11727129_at) / Fold change /veh MAGEB2 (11727129_at) / RFU TMEM200A (11744735_a_at) / Fold change /veh TMEM200A (11744735_a_at) / RFU CCDC152 (11751479_a_at) / Fold change /veh CCDC152 (11751479_a_at) / RFU FAM211A (11726209_a_at) / Fold change /veh FAM211A (11726209_a_at) / RFU RGS16 (11746705_a_at) / Fold change /veh RGS16 (11746705_a_at) / RFU VCAN (11755009_s_at) / Fold change /veh VCAN (11755009_s_at) / RFU RHOB (11743442_s_at) / Fold change /veh RHOB (11743442_s_at) / RFU RGS16 (11720943_a_at) / Fold change /veh RGS16 (11720943_a_at) / RFU RGS16 (11720944_at) / Fold change /veh RGS16 (11720944_at) / RFU, VPS4B / Fold change vs veh, VPS4B / RFU, CREB1 / Fold change vs veh, CREB1 / RFU, DNAJC13 / Fold change vs veh, DNAJC13 / RFU, GNAQ / Fold change vs veh, GNAQ / RFU, CDK5R1 / Fold change vs veh, CDK5R1 / RFU, ZRANB3 / Fold change vs veh, ZRANB3 / RFU, CUL4A / Fold change vs veh, CUL4A / RFU, CCNY / Fold change vs veh, CCNY / RFU, UFL1 / Fold change vs veh, UFL1 / RFU, COG3 / Fold change vs veh, COG3 / RFU, DIAPH2 / Fold change vs veh, DIAPH2 / RFU, SKA2 / Fold change vs veh, SKA2 / RFU, AFF3 / Fold change vs veh, AFF3 / RFU, LMF1 / Fold change vs veh, LMF1 / RFU, IPO11 / Fold change vs veh, IPO11 / RFU, DFFB / Fold change vs veh, DFFB / RFU, FOXP1 / Fold change vs veh, FOXP1 / RFU, CARD8 / Fold change vs veh, CARD8 / RFU, STRN3 / Fold change vs veh, STRN3 / RFU, ADK / Fold change vs veh, ADK / RFU, RASSF2 / Fold change vs veh, RASSF2 / RFU, WIPF1 / Fold change vs veh, WIPF1 / RFU, LARP1B / Fold change vs veh, LARP1B / RFU, RASA1 / Fold change vs veh, RASA1 / RFU, RB1 / Fold change vs veh, RB1 / RFU, PPFIA1 / Fold change vs veh, PPFIA1 / RFU, MAT2A / Fold change vs veh, MAT2A / RFU, CCT5 / Fold change vs veh, CCT5 / RFU, WDR92 / Fold change vs veh, WDR92 / RFU, CUX1 / Fold change vs veh, CUX1 / RFU, TTC7A / Fold change vs veh, TTC7A / RFU, TMEM135 / Fold change vs veh, TMEM135 / RFU, DEPTOR / Fold change vs veh, DEPTOR / RFU, CPM / Fold change vs veh, CPM / RFU, DNAJB6 / Fold change vs veh, DNAJB6 / RFU, CACNA2D3 / Fold change vs veh, CACNA2D3 / RFU, DTX4 / Fold change vs veh, DTX4 / RFU, TFCP2 / Fold change vs veh, TFCP2 / RFU, GMCL1 /// GMCL1P1 / Fold change vs veh, GMCL1 /// GMCL1P1 / RFU, AEBP2 / Fold change vs veh, AEBP2 / RFU, SNHG1 /// SNORD22 /// SNORD25 /// SNORD26 /// SNORD27 /// SNORD28 /// SNORD29 /// SNORD31 / Fold change vs veh, SNHG1 /// SNORD22 /// SNORD25 /// SNORD26 /// SNORD27 /// SNORD28 /// SNORD29 /// SNORD31 / Fold change (Aza/veh), C12orf56 (ProbeSet 11735607_a_at) / Fold change (ACY-1035/veh), C12orf56 (ProbeSet 11735607_a_at) / Fold change (Aza/veh), FGFR1OP (ProbeSet 11751329_s_at) / Fold change (ACY-1035/veh), FGFR1OP (ProbeSet 11751329_s_at) / Fold change (Aza/veh), VPS36 (ProbeSet 11739960_a_at) / Fold change (ACY-1035/veh), VPS36 (ProbeSet 11739960_a_at) / RFU SYPL1 (11715823_x_at) / Fold change /veh SYPL1 (11715823_x_at) / RFU IGFBP7 (11715501_s_at) / Fold change /veh IGFBP7 (11715501_s_at) / RFU REEP3 (11722064_at) / Fold change /veh REEP3 (11722064_at) / RFU IGLL1 (11728026_x_at) / Fold change /veh IGLL1 (11728026_x_at): dose or concentration left out as unconfirmed",
  "settings": "MV-4-11 cells, 48 hours",
  "data": [
    {"compound": "Nc1ccc(-c2cccs2)cc1NC(=O)c1ccc2c(c1)cc(C1CC1)n2CCN1CCOCC1", "note": "[ACY-1035]", "values": [
      {"measurement": "Fold change /veh 11764193_at", "value": 1.19}
    ]}
  ]
}
